Results: US20070128181A1, “Methods of Preventing Morbidity and Mortality by Perioperative Administration of a Blood Clotting Inhibitor” (priority 2002, published 2007)

System: patients with medically-refractory coronary artery disease scheduled for coronary artery bypass surgery
Assay: Prospective, longitudinal study of aspirin use within 48 hours of revascularization in coronary artery bypass surgery patients
Assay type: in vivo
Excerpt: A prospective, longitudinal study enrolled 5,436 patients. Eligible patients included those with medically-refractory coronary artery disease and scheduled for coronary artery bypass surgery at 70 medical institutions among 17 countries in North and South America, Europe, the Middle East and Asia. At each institution, 100 patients were to be prospectively enrolled according to a systematic sampling scheme that allowed a random sampling of patients at each institution among all patients undergoing surgery at that institution.
Of the 5,436 patients enrolled, 5,065 patients completed the study and were included in the final analysis. Of the 371 patients excluded, 32 were excluded due to patient withdrawal, 2 due to death prior to surgery, 97 due to cancellation or rescheduling of surgery, 132 patients due to change in procedure, 11 due to inadvertent enrollment in another study, 86 due to incomplete data and 11 due to incomplete blood sampling, shipping or storage.
Aspirin was administered in doses of 160 mg to 650 mg to 3,001 patients within 48 hours of revascularization. All potential side-effects associated with aspirin use were recorded daily by blinded investigators. Independent investigators coded all medications received-including pro- and anti-thrombotic and pro- and anti-coagulant medications, and blood products—by day throughout hospitalization, as well as at admission and at discharge, or until death.
For each enrolled patient, approximately 7,500 fields of data were collected throughout the patient's index hospitalization, from admission until discharge, by independent investigators; treated physicians were blinded to all research data. Data included demographic, historical, clinical, laboratory, eloectrocardiographic, specialized testing, resource utilization, and adverse outcomes. Following last patient enrollment, all data fields for each patient were queried centrally for completeness and accuracy, with all changes documented prior to database closure.
All outcomes were prespecified, defined by protocol, and discerned by investigators blinded to treatment group. Fatal and non-fatal outcomes were classified as cardiac (myocardial infarction, congestive heart failure and cardiac death), cerebral (stroke, encephalopathy and cerebral death), renal (dysfunction, failure and renal death), gastrointestinal (ischemia, infarction and GI death), or other (such as infectious, pulmonary). The diagnosis of myocardial infarction required either: the development of new Q waves (as defined by Minnesota Code 1-1-1I or 1I-2-7); or new persistent S T-segment or T-wave changes (Minnesota Code 4-1,4-2, 5-1 or 5-2) associated with an elevation of CK-MB isoenzyme values; or autopsy evidence of acute myocardial infarction. The diagnosis of heart failure required either: the use of a ventricular assist device; or the use of continuous inotropic support for at least 24 hours; or autopsy evidence of heart failure. Cerebral outcomes were classified as: clinically diagnosed stroke or encephalopathy; or CT, MRI or autopsy evidence of a focal or global defect. Renal dysfunction was defined as: a serum creatinine ≧177 μmol/L accompanied by a ≧62 μmol/L rise over baseline; and renal failure was defined as dysfunction requiring dialysis, or autopsy evidence of renal failure. Gastrointestinal ischemia was defined as abdominal pain diagnosed as intestinal ischemia, or detected at exploration; infarction required bowel resection, or autopsy evidence of intestinal infarction.
The risk of death for aspirin taking versus control populations were compared using the Chi-Square test. Individual ischemic outcomes involving the heart, brain, kidney and gastrointestinal tract, and combined ischemic outcomes were compared using Fisher's Exact Test or the Chi-Square test as appropriate. Odds ratios and the 95% confidence intervals are presented with associated P values. […]

SMILES | risks of dying and ischemic complications associated with platelet transfusion after reperfusion and prophylactic anti-fibrinolytics (FIG. 3A) | risk of dying during hospitalization (aspirin within 48 hours of revascularization, v. 5.9% without aspirin, P<0.0001) [%] | risk of non-fatal ischemic complications associated with the heart, brain, kidney or gastrointestinal tract (aspirin within 48 hours of revascularization, v. 24.5% without aspirin, P<0.0001) [%] | Odds Ratio, Multivariate Analyses for Morality (discontinuation of use (Table 3B)) | survival over the first 30 postsurgical days (early aspirin use, FIG. 2) | reduction in mortality (first use of aspirin 48 hours after surgery, not significant, P=0.534) [%] | Gastritis, % of patients (human, in vivo) [%] | Hemorrhage: Gastrointestinal tract bleeding, % of patients (human, in vivo) [%] | Hemorrhage: Other Source of Bleeding, % of patients (human, in vivo) [%] | Impaired Wound Healing, % of patients (human, in vivo) [%] | Infection, % of patients (human, in vivo) [%] | Return to operating room for bleeding, % of patients (human, in vivo) [%] | Odds Ratio, Multivariate Analyses for Morality (use at admission (Table 3B)) | Odds Ratio, Multivariate Analyses for Morality (use following revascularization, 95% CI 0.19-0.40, P <0.0001) | Odds Ratio, Multivariate Analyses for Morality (use prior to surgery (Table 3B)) | Length of hospitalization (versus 11.32±9.44 without aspirin, P<0.0001) | patients who died within 12 hours of surgery (versus 25 patients in the control group) | patients who died within 48 hours of surgery (versus 42 patients from the control group) | Odds Ratio, Multivariate Analyses for Morality (use over the week prior to revascularization, 95% CI 1.23-3.25, P 0.005)
CC(=O)Oc1ccccc1C(=O)O [Aspirin, aspirin] | substantially reduced, but did not eliminate these risks | 1.4 | 13.6 | 1.04 | Improved survival | 15 | 0.33 | 1.1 | 1.7 | 4.5 | 8.4 | 1.9 | 1.46 | 0.27 | 0.77 | 9.57±7.14 | none | one | 
CC(=O)CC(c1ccccc1)c1c(O)c2ccccc2oc1=O (stereo not shown) [Warfarin/coumadin, warfarin] |  |  |  |  |  |  |  |  |  |  |  |  |  |  |  |  |  |  | 2.00
